Laboratory results published in patent US20050208036A1, “Methods for treating or preventing GVHD” (University of North Carolina at Chapel Hill, priority 2003, published 2005).
Where “and” joins values, the source holds several entries; their conditions need not be identical. Identical values can stand only once. Values belong to the compound of their own block, whether it stands above or below them.

Experiments:
[1] = test system: donor CD4+ T cells from C57BL/6 mice with irradiated bm12 splenocytes; assay: Mixed lymphocyte reaction (MLR): proliferative response of T cells to alloantigen, 3H-thymidine incorporation; format: cell-based, mouse
Method: (§1) A bulk MLR was prepared by combining donor CD4^+ T cells obtained from C57BL/6 (H-2^b) mice (National Institutes of Health, Bethesda, Md., U.S.A.) in a 1:1 ratio with T cell-depleted, irradiated splenocytes obtained from bm12 (H-2^bm12), MHC class II disparate mice (The Jackson Laboratory, Bar Harbor, Me., U.S.A.). An anti-CD40L monoclonal antibody (hybridoma MR1, hamster IgG), obtained by culturing the hybridoma in 10% FBS/DMEM in an Accusyst Jr. hollow fiber bioreactor (Cellex Biosciences, Minneapolis, Minn., U.S.A.), was added to the bulk MLR culture and the cells were incubated for 7-10 days. Proliferative responses of the T cells to alloantigen were determined on days 2, 4, 5, 6, and 7 by measuring ^3H-thymidine incorporation into newly synthesized DNA. The antibody removed from the cultures by washing three times with 2% FBS/PBS, and aliquots of the cells (0.3×10^5, 10^5, and 3×10^5 cells) were administered in 0.5 mL DMEM by tail vein injection to bm12 mice subjected to a sublethal dose (6.0 Gy) of total body irradiation. Control irradiated mice received the same amounts of cells from MLR that had not been exposed to anti-CD40L. The mice were monitored for GVHD lethality, weight changes, and packed cell volume (PCV). Cells remaining from the primary MLR were mixed with fresh bm12 splenocytes for a secondary MLR, and proliferative responses to allogen were measured on days 1 through 5. Aliquots of the secondary MLR cultures were subsequently administered to irradiated bm12 mice.
An MLR culture was prepared consisting of a 1:1 ratio of CD4+ T cells obtained from C57BL/6 mice and T cell-depleted, irradiated MHC class II-disparate stimulators obtained from bm12 mice. PS1145, a potent inhibitor of IκB kinase and thus NF-κB activation, was added to the MLR culture at concentrations of 0.2 μM, 0.6 μM, 1 μM, 2 μM, 6 μM, and 10 μM. Control MLR cultures were left untreated or were treated with DMSO. […] This hyporesponsiveness persisted after washing of the T cells and re-exposure to alloantigen. As with anti-CD40L treated MLR, alloantigen hyporesponsiveness was reversed by addition of 50 U/mL exogenous IL-2 (FIG. 7).
(§2) The tolerance induced by PS1145 was specific to alloantigen, as responses to non-specific mitogens remained largely intact.
CD4^+ CD25^+ cells were required in cultures tolerized by anti-CD40L. To determine whether CD25^+ T cells, which express the high-affinity IL-2 receptor a chain (IL-2Rα), were required for PS 1145 induction of tolerance, CD25^+-depleted T cells were used in primary and secondary MLR. […] Similarly, CD4^+ CD25^+ T cells were not required for tolerance induction by PS1145 in secondary cultures.

[2] = test system: bm12 mice; assay: GVHD lethality after transfer of MLR cells into sublethally irradiated MHC class II disparate recipients; format: in vivo, mouse
Method: as §1
CD4^+ T cells that were allowed to recover from a vehicle-treated 7 day MLR were uniformly fatal upon adoptive transfer into sublethally irradiated MHC class-II disparate recipients, whereas T cells subjected to ex vivo PS1145 treatment were lethal to only 22% of recipients. Mice were intravenously injected with either 10^5 naïve T cells, 10^5 cells from 7 day control MLR or 10^5 cells from MLR exposed to 6 μM or 10 μM PS1145 for 7 days. […] Thus, the NF-κB pathway is a critical regulator of T cell responses, and provides an ex vivo approach to inducing alloantigen-specific tolerance as a means of preventing GVHD.

[3] = test system: alloreactive transgenic T cells; assay: T cell apoptosis in MLR of alloreactive and non-alloreactive transgenic T cells, Annexin V binding; format: cell-based; settings: 10 μM, 1:1 alloreactive and non-alloreactive transgenic T cells
Text: as §2

[4] = test system: TNF-α; assay: LPS-induced TNF-α expression in mice, ELISA; format: in vivo, B6 and BALB/c mice; settings: 1 μg/kg LPS; 10, 25 or 50 mg/kg oral; 24-72 hours post-treatment; vs controls
Method: (§3) B6 and BALB/c mice were given 1 μg/kg of LPS, after which they orally received either control methylcellulose or PS1145 in methylcellulose. Animals were evaluated for expression of the cytokine TNF-α and the chemokine MIP-1α (CCL3) at 24-72 hours post-treatment, as assessed by ELISA.

[5] = test system: MIP-1α (CCL3); assay: LPS-induced MIP-1α (CCL3) expression in mice, ELISA; format: in vivo, B6 and BALB/c mice; settings: 1 μg/kg LPS; 10, 25 or 50 mg/kg oral; 24-72 hours post-treatment; vs controls
Method: as §3

[6] = test system: B6D2 recipient mice; assay: Murine stem cell transplant GVHD model, survival; format: in vivo, mouse
Method: A murine stem cell transplant model was developed in which bone marrow was removed from B6 (H2^b) donors. The marrow was depleted of T cells by incubation with an anti-Thy 1.2 monoclonal antibody coupled to magnetic beads, followed by removal of T cells that bound the antibody using a magnetic column. Thy 1.2^+ T cells were isolated from splenocytes using a similar approach and were added back to the bone marrow. Animals received between 1-5×10^6 T cells and 3×10^6 bone marrow cells after lethal irradiation. The T cell-depleted marrow was transplanted into B6D2H2^bxd recipient mice that had been subjected to a lethal dose of irradiation (8.5 Gy). Recipient mice were divided into six groups, three of which received 1 mg PS1145 starting on day −2, day 0, or day 6 relative to transplant. The other three groups received methylcellulose as a control, starting on day −2, 0, or 6. PS1145 suspended in methylcellulose or methylcellulose alone was administered daily by gavage, through day 14. Mice were evaluated every three days for weight loss, GVHD, and outcome. […] Treatment with PS1145 that started on day 6 was correlated with an earlier death (all mice were dead by about day 12) as compared to treatment that started on day 0 (all mice were dead by about day 28). All mice in the methylcellulose control group were dead by day 20.
In a similar experiment, recipient mice were subjected to 1125 cGy of irradiation and then treated with oral doses of 5 mg/kg methylcellulose or PS1145. In this case, however, all animals in both groups were dead by about day 42 post-transplant (FIG. 12). […] Thus, the use of PS1145 to ameliorate GVHD via an oral route was not effective using very heavy doses of irradiation.
Experiments also were performed in which 5 mg/kg PS1145 or methylcellulose was given intraperitoneally (i.p.) to mice starting on day −2 and ending on day 14 post-transplantation. B6D2 mice that had received 850 cGy of irradiation were injected with 3×10^6 bone marrow cells from B6 donors and 5×10^6 selected B6 T cells.

[7] = test system: TNF-α; assay: TNF-α levels in colon and small intestine after transplant, cytokine bead assay; format: in vivo, mouse; settings: 5 mg/kg i.p. on days −1 and −2, days 3-18, vs untreated
Method: (§4) Expression of TNF-α and MIP-1α (CCL3) was evaluated in mice treated i.p. with PS1145 and subjected to transplantation of T cell-depleted bone marrow with Thy 1-selected splenocytes as a source of T cells. Mice in the test group received 5 mg/kg PS1145 on days −1 and −2 relative to transplant, while control animals were untreated. Animals were sacrificed from days 3-18 for assessment of TNF-α levels in the colon and small intestine and MIP-1α levels in the liver. A cytokine bead assay was used to measure levels of these factors. […] While TNF-α levels in control animals increased from day 3 to day 18, the level was relatively constant in animals exposed to PS1145.

[8] = test system: MIP-1α (CCL3); assay: MIP-1α levels in liver after transplant, cytokine bead assay; format: in vivo, mouse; settings: 5 mg/kg i.p. on days −1 and −2, days 3-18, vs untreated
Method: as §4

[9] = target: NEMO (Homo sapiens, UniProt Q9Y6K9); assay: NBD mutants: ability to bind to NEMO; format: binding
[10] = 5 mg/kg i.p. day −2 to day 14, 850 cGy
[11] = oral 5 mg/kg, 1125 cGy irradiation

Chain of NEMO (Q9Y6K9 whole entry, species assumed): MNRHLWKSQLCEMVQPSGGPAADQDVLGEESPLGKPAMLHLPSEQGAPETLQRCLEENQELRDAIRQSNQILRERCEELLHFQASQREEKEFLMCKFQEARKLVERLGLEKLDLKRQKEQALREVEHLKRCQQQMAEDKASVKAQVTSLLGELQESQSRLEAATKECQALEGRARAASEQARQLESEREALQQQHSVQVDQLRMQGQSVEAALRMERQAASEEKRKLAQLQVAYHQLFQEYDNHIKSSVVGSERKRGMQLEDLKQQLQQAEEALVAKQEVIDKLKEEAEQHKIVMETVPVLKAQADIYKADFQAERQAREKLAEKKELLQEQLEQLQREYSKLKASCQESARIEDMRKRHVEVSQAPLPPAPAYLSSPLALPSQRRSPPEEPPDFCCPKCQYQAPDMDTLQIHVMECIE

Binds to NEMO [9]: Yes
Compound: LDWSFL (Hexapeptide variant of human IKK-beta NBD (SEQ ID NO2) having F in the 5th position.) [NBD mutant]

Binds to NEMO [9]: Yes
Compound: LDWSWA (Hexapeptide variant of human IKK-beta NBD (SEQ ID NO2) having A in the 6th position.) [NBD mutant]

Binds to NEMO [9]: No
Compound: LDWSYL (Hexapeptide variant of human IKK-beta NBD (SEQ ID NO2) having Y in the 5th position.) [NBD mutant]

Binds to NEMO [9]: Yes
Compound: LDYSWL (Hexapeptide variant of human IKK-beta NBD (SEQ ID NO2) having Y in the 3rd position.) [NBD mutant]

Binds to NEMO [9]: Yes
Compound: LEWSWL (Hexapeptide variant of human IKK-beta NBD (SEQ ID NO2) having E in the 2nd position.) [NBD mutant]

Binds to NEMO [9]: Yes
Compound: LNWSWL (Hexapeptide variant of human IKK-beta NBD (SEQ ID NO2) having N in the 2nd position.) [NBD mutant]

More lines, now with the values behind:

Compound: O=C(Nc1cc(Cl)cc2c1[nH]c1cnccc12)c1cccnc1 [PS1145]
response on re-exposure to allogeneic APC ([1]; 10 μM, re-exposed to allogeneic APC): remained hyporesponsive | proliferation after secondary stimulus of CD3+ and CD28+ cells ([1]; 10 μM, secondary stimulus CD3+ and CD28+ cells): comparable to controls | alloantigen hyporesponsiveness with exogenous IL-2 ([1]; 50 U/mL exogenous IL-2 added): reversed | T cell proliferation in response to alloantigen ([1]; MLR treated with 6 μM and 10 μM): reduced level of proliferation | hyporesponsiveness after washing of the T cells and re-exposure to alloantigen ([1]; after washing, re-exposure to alloantigen): persisted | Long term survival (>90 days) ([2]; 10^5 cells i.v. from MLR exposed to 6 μM for 7 days): five of eight and 5/8 | Long term survival (>90 days) ([2]; 10^5 cells i.v. from MLR exposed to 10 μM for 7 days): nine of ten and 9/10 | recipients to which treated T cells were lethal ([2]; T cells treated ex vivo, adoptive transfer): 22% | long-term survival rate ([2]; recipients of donor T cells treated ex vivo): 78% | rate of T cell apoptosis [3]: increased the rate of T cell apoptosis selectively in alloreactive cells | TNF-α expression [4]: markedly reduced | MIP-1α (CCL3) expression [5]: markedly reduced | day by which all mice were dead ([6]; 1 mg daily by gavage from day 0 through day 14, 8.5 Gy): ~28 days | day by which all mice were dead ([6]; 1 mg daily by gavage from day 6 through day 14, 8.5 Gy): ~12 days | mice surviving at least through day 50 ([6]; 1 mg daily by gavage from day −2 through day 14, 8.5 Gy): about 20% | Survival Day 30 [6, 10]: 7/10 | Survival Day 60 [6, 10]: 5/10 | survival of B6D2 mice [6, 10]: 50% | day post-transplant by which all animals were dead [6, 11]: ~42 days | survival time compared with methylcellulose group [6, 11]: little difference | TNF-α expression in colon and small intestine [7]: significantly decreased | MIP-1α levels in the liver [8]: Analogous results

Compound: ADWSWL (Hexapeptide variant of human IKK-beta NBD (SEQ ID NO2) having A in the 1st position.) [NBD mutant]
Binds to NEMO [9]: Yes

Compound: LAWSWL (Hexapeptide variant of human IKK-beta NBD (SEQ ID NO2) having A in the 2nd position.) [NBD mutant]
Binds to NEMO [9]: No

Compound: LDASAL (Hexapeptide variant of human IKK-beta NBD (SEQ ID NO2) having A in the 3rd and 5th positions.) [NBD mutant]
Binds to NEMO [9]: No

Compound: LDASWL (Hexapeptide variant of human IKK-beta NBD (SEQ ID NO2) having A in the 3rd position.) [NBD mutant]
Binds to NEMO [9]: No

Compound: LDFSWL (Hexapeptide variant of human IKK-beta NBD (SEQ ID NO2) having F in the 3rd position.) [NBD mutant]
Binds to NEMO [9]: Yes

Compound: LDSWSL (listed as Homo sapiens)
Binds to NEMO [9]: Yes

Compound: LDWAWL (Hexapeptide variant of human IKK-beta NBD (SEQ ID NO2) having A in the 4th position.) [NBD mutant]
Binds to NEMO [9]: Yes

Compound: LDWEWL (Hexapeptide variant of human IKK-beta NBD (SEQ ID NO2) having E in the 4th position.) [NBD mutant]
Binds to NEMO [9]: Yes

Compound: LDWSAL (Hexapeptide variant of human IKK-beta NBD (SEQ ID NO2) having A in the 5th position.) [NBD mutant]
Binds to NEMO [9]: No
